According to PubChem BioAssay (NCI):
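Assay format: 96-well plates, 48-hour exposure. TGI is the concentration that stops growth completely.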

How the values were obtained:
Assay in all cases: growth of human tumour cells (NCI), 48 h
CAKI-1 renal = system: CAKI-1 renal
COLO 205 colon = system: COLO 205 colon
HCC-2998 colon = system: HCC-2998 colon
HCT-116 colon = system: HCT-116 colon
HL-60(TB) leukemia = system: HL-60(TB) leukemia
M14 melanoma = system: M14 melanoma
NCI-H226 lung = system: NCI-H226 lung
NCI-H23 lung = system: NCI-H23 lung
OVCAR-3 ovarian = system: OVCAR-3 ovarian
RXF 393 renal = system: RXF 393 renal
SF-295 CNS = system: SF-295 CNS
SF-539 CNS = system: SF-539 CNS
SK-MEL-2 melanoma = system: SK-MEL-2 melanoma
SK-MEL-28 melanoma = system: SK-MEL-28 melanoma
SNB-19 CNS = system: SNB-19 CNS
SR leukemia = system: SR leukemia
MDA-MB-435 = system: MDA-MB-435
NCI/ADR-RES ovarian = system: NCI/ADR-RES ovarian
PC-3 prostate = system: PC-3 prostate
T-47D breast = system: T-47D breast

| SMILES | TGI (CAKI-1 renal) | TGI (COLO 205 colon) | TGI (HCC-2998 colon) | TGI (HCT-116 colon) | TGI (HL-60(TB) leukemia) | TGI (M14 melanoma) | TGI (NCI-H226 lung) | TGI (NCI-H23 lung) | TGI (OVCAR-3 ovarian) | TGI (RXF 393 renal) | TGI (SF-295 CNS) | TGI (SF-539 CNS) | TGI (SK-MEL-2 melanoma) | TGI (SK-MEL-28 melanoma) | TGI (SNB-19 CNS) | TGI (SR leukemia) | TGI (MDA-MB-435) | TGI (NCI/ADR-RES ovarian) | TGI (PC-3 prostate) | TGI (T-47D breast) |
| --- | --- | --- | --- | --- | --- | --- | --- | --- | --- | --- | --- | --- | --- | --- | --- | --- | --- | --- | --- | --- |
| CCOC1c2cc(C(C)C)c(O)c(O)c2[C@@]23CCCC(C)(C)C2C1OC3=O (stereo not given in full) | > 100 µM | > 100 µM | > 100 µM | > 100 µM | > 100 µM | > 100 µM | > 100 µM | > 100 µM | > 100 µM | > 100 µM | > 100 µM | > 100 µM | > 100 µM | > 100 µM | > 100 µM | > 100 µM | – | – | – | – |
| C=CN1C(=O)[C@H](Oc2ccccc2)[C@@H]1c1ccccc1 | – | – | > 100 µM | > 100 µM | – | > 100 µM | > 100 µM | 60 µM | – | 52.5 µM | > 100 µM | 31.1 µM | > 100 µM | > 100 µM | > 100 µM | > 100 µM | – | – | – | – |
| COC(=O)C(C(=O)Cc1ccccc1[N+](=O)[O-])C(=O)OC | > 100 µM | > 100 µM | > 100 µM | > 100 µM | > 100 µM | > 100 µM | > 100 µM | > 100 µM | > 100 µM | > 100 µM | > 100 µM | > 100 µM | > 100 µM | > 100 µM | > 100 µM | > 100 µM | – | – | – | – |
| CC1(C)OC[C@@H]([C@H](O)C2C=CC(=O)S2)O1 (stereo not given in full) | 72.4 µM | 40.5 µM | 33.5 µM | 27.3 µM | > 100 µM | > 100 µM | > 100 µM | 78.5 µM | > 100 µM | 53.5 µM | > 100 µM | > 100 µM | 77.1 µM | – | > 100 µM | – | > 100 µM | 83.6 µM | > 100 µM | – |
| C=C(Nc1nc2ccc(C)cc2s1)C(=O)C(CC)C(=O)C(CC)CC1C(=O)NC(=O)NC1=O (stereo not given) | > 100 µM | > 100 µM | > 100 µM | > 100 µM | > 100 µM | > 100 µM | > 100 µM | > 100 µM | > 100 µM | > 100 µM | > 100 µM | > 100 µM | > 100 µM | > 100 µM | > 100 µM | – | > 100 µM | > 100 µM | > 100 µM | – |
| CCOC(=O)/C(=C/c1ccc(N(C)C)cc1)N(CC)CC | > 100 µM | > 100 µM | > 100 µM | > 100 µM | 81 µM | > 100 µM | 94.2 µM | > 100 µM | > 100 µM | – | > 100 µM | > 100 µM | > 100 µM | > 100 µM | > 100 µM | > 100 µM | – | – | – | – |
| CCCCC/C=C1\CCC(CN(C)C)C1=O (stereo not given) | 18.4 µM | 22.6 µM | 31 µM | 25 µM | 30.3 µM | 28.1 µM | 29.5 µM | 34.6 µM | 30.7 µM | – | 40.9 µM | 24.1 µM | 34.7 µM | 23.9 µM | 36.9 µM | 21.6 µM | – | – | – | – |
| O=S(=O)(c1ccccc1)N1N=C2c3ccccc3CCC[C@H]2C1c1ccccc1 (stereo not given in full) | > 100 µM | > 100 µM | > 100 µM | > 100 µM | > 100 µM | > 100 µM | > 100 µM | > 100 µM | > 100 µM | > 100 µM | > 100 µM | > 100 µM | > 100 µM | > 100 µM | > 100 µM | > 100 µM | – | – | – | – |
| COCOC1C=CCCCC2=CC(C)=C(CC1)O2 (stereo not given) | > 100 µM | > 100 µM | > 100 µM | > 100 µM | – | > 100 µM | > 100 µM | > 100 µM | > 100 µM | > 100 µM | > 100 µM | > 100 µM | – | > 100 µM | > 100 µM | > 100 µM | > 100 µM | > 100 µM | > 100 µM | – |
| COC(=O)c1nsc(OC)c1Cl | > 100 µM | > 100 µM | > 100 µM | > 100 µM | > 100 µM | > 100 µM | > 100 µM | > 100 µM | > 100 µM | > 100 µM | > 100 µM | > 100 µM | – | > 100 µM | > 100 µM | – | > 100 µM | > 100 µM | > 100 µM | – |
| CCOC(=O)NNC(=O)NCCCCNC(=O)NNC(=O)OCC | > 100 µM | > 100 µM | – | > 100 µM | > 100 µM | > 100 µM | > 100 µM | > 100 µM | > 100 µM | > 100 µM | > 100 µM | > 100 µM | > 100 µM | > 100 µM | > 100 µM | – | > 100 µM | > 100 µM | > 100 µM | > 100 µM |
| CN(CCN(C)C(=O)CCn1cc(F)c(=O)[nH]c1=O)C(=O)CCn1cc(F)c(=O)[nH]c1=O | – | > 100 µM | > 100 µM | > 100 µM | > 100 µM | > 100 µM | > 100 µM | > 100 µM | > 100 µM | > 100 µM | > 100 µM | > 100 µM | > 100 µM | > 100 µM | > 100 µM | > 100 µM | – | – | – | – |
| Cn1cnnc1Sc1c([N+](=O)[O-])ncn1C | > 100 µM | > 100 µM | > 100 µM | > 100 µM | – | > 100 µM | > 100 µM | > 100 µM | > 100 µM | – | > 100 µM | > 100 µM | > 100 µM | > 100 µM | > 100 µM | > 100 µM | – | – | – | – |
| COC1(OC)CCCc2c1no[n+]2[O-] | > 100 µM | > 100 µM | > 100 µM | > 100 µM | > 100 µM | > 100 µM | > 100 µM | > 100 µM | > 100 µM | > 100 µM | > 100 µM | > 100 µM | > 100 µM | > 100 µM | > 100 µM | > 100 µM | > 100 µM | > 100 µM | > 100 µM | – |
